Tests used:
[1] = target: VHL co-expressed with Elongins B and C (Homo sapiens (Human), UniProt P40337); assay: Surface Plasmon Resonance Assay; format: binding; settings: SPR measured VHL affinity; geometric mean where more than one measurement
Protocol: Using a Biacore T200, […] tagged VHL co-expressed with Elongins B and C were immobilized to a Biacore SA chip in running buffer without DMSO. Compounds were tested individually at varying concentrations in running buffer (50 mM HEPES pH 7.2, 150 mM NaCl, 0.5 mM TCEP, 0.001% Tween 20, 0.2% PEG3350, 2% DMSO) at 20° C. Sensorgrams were run in order from low to high concentration using a flow rate of 80 μL/min. Association and disassociation times were varied depending on the estimated potency of the compound tested. […] Galdeano et al, J. Med. Chem. 2014, 57, 8657-8663, herein incorporated by reference) which retained greater than 75% of the activity over the course of the run. Analysis of the binding curves and determination of the kinetic parameters were done using evaluation software (Version 2.0, Biacore).

VHL Elongin B/C complex = VHL Elongin B/C complex (Homo sapiens (Human), UniProt P40337); assay: Fluorescence Polarization (FP) VHL Binding Assay; settings: for IC50: VHL binding, FP assay, geometric mean where more than one measurement
VHL Elongin B/C complex, sequence (P40337 whole entry, looked up, the tested form may be a part): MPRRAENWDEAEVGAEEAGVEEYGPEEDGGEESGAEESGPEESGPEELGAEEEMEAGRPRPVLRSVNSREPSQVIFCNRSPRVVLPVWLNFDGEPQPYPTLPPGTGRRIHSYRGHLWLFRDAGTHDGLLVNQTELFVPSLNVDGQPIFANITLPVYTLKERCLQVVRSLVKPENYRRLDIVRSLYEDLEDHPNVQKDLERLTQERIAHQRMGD
VHL Elongin B/C complex, sequence (Q15370 whole entry partner, looked up, the tested form may be a part): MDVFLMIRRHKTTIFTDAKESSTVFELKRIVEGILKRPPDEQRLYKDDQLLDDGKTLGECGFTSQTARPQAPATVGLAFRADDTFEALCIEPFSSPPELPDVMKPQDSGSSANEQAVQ
VHL Elongin B/C complex, sequence (Q15369 whole entry partner, looked up, the tested form may be a part): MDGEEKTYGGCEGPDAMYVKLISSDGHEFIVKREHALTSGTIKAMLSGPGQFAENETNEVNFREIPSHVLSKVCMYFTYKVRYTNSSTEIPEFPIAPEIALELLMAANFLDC
Protocol: The binding of test compounds to the VHL Elongin B/C complex was measured using a fluorescence polarization tracer competition assay. The VHL/Elongin B/C protein complex used in the assay was generated as follows. The coding region for amino acids E55-D213 of human VHL with N-terminal His6 tag with a TEV-protease cleavage site was co-expressed with Elongin B (residues M1-Q118) and Elongin C (Residues M17-C112) in E. coli. […] The purified VHL/Elongin B/C complex was dialyzed into formulation buffer: 20 mM Bis-Tris pH7.0, 150 mM NaCl, 1 mM DTT. A VHL fluorescence polarization probe (prepared in Example 91), consisted of a VHL ligand coupled to carboxytetramethylrhodamine (TAMRA); […] Compounds were prepared as a serial dilution in DMSO at a concentration 25-fold higher than the final desired concentration and acoustically dispensed (400 nl) into a ProxiPlate-384 Plus F, Black 384-shallow well Microplate (Part Number 6008260). DMSO was dispensed into wells designated for “VHL control” (without compound) wells. The “Assay Buffer” consisted of 50 mM Tris pH 8.0, 120 mM NaCl, 0.005% Nonidet P-40, and 1% DMSO (v/v). Assay Buffer containing […] VHL Elongin B/C complex was prepared and 5 μl dispensed using a BioRapTR (Beckman Coulter) into each well of the assay plate. Assay Buffer was also dispensed into “no VHL control” wells using the same method. A “pre-assay” fluorescence measurement was made using an Infinite® M1000 (Tecan) plate reader (Excitation 530 nm, Emission 574 nm, Bandwidth 10 nm). Assay Buffer containing 3.34 nM of the VHL FP probe was prepared in Assay Buffer and 5 μl dispensed into each well of the assay plate using a BioRapTR (Beckman Coulter). The final VHL/Elongin B/C protein concentration is 2.64 nM and the final probe concentration is 1.67 nM. Assay plates were briefly centrifuged and incubated for 1 hour at room temperature. “Post-assay” fluorescence polarization measurements were made as described for the “pre-assay” fluorescence measurement. Fluorescence polarization was calculated for each sample; taking into account the “pre-assay” fluorescence measurements and subtracting the fluorescence signal of the compound/VHL only (“pre-assay”) measurements from the “post-assay” fluorescence polarization measurements, for each plane of polarization. The data were analyzed using Genedata Screener software and normalized to the “no VHL control” and “VHL control” (without compound). IC50 values were calculated using a four parameter curve fit (Robust method).

VHL co-expressed with Elongins B and C, sequence (P40337 whole entry, looked up): as the sequence (P40337 whole entry, looked up, the tested form may be a part) above
VHL co-expressed with Elongins B and C, sequence (Q15370 whole entry partner, looked up): as the sequence (Q15370 whole entry partner, looked up, the tested form may be a part) above
VHL co-expressed with Elongins B and C, sequence (Q15369 whole entry partner, looked up): as the sequence (Q15369 whole entry partner, looked up, the tested form may be a part) above

Row | SMILES | Kd [1] [µM] | IC50 (VHL Elongin B/C complex) [µM] | Kd (VHL Elongin B/C complex; probe binding to VHL/Elongin B/C) [nM]
1 | Cc1cc(C(C(=O)N2C[C@H](O)CC2C2=NC(=O)C(C)(c3ccc(-c4cccnc4)cc3)N2)C(C)C)on1 (single isomer, unassigned) [Example 105.2] | 113 | 136 | 
2 | Cc1ncsc1-c1ccc([C@]2(C)NC(C3C[C@@H](O)CN3C(=O)C(c3cc(O)no3)C(C)C)=NC2=O)cc1 (single isomer, unassigned) [Example 116.3] | 150 |  | 
3 | Cc1cc([C@@H](C(=O)N2C[C@H](O)C[C@H]2C2=NOC(C)(c3ccccc3)N2)C(C)C)on1 (single isomer, unassigned) [Example 128.1] | ≥ 150 |  | 
4 | Cc1ncsc1-c1ccc([C@]2(C)NC(C3C[C@@H](O)CN3C(=O)[C@@H]3CCCN3S(C)(=O)=O)=NC2=O)cc1 (single isomer, unassigned) [Example 112.2] | 150 |  | 
5 | Cc1cc(C(C(=O)N2C[C@H](O)CC2C2=NC(=O)C(C)(c3ccc(-c4cccc(=O)n4C)cc3)N2)C(C)C)on1 (single isomer, unassigned) [Example 108.2] | 3.95 | 11 | 
6 | Cc1cc([C@@H](C(=O)N2C[C@H](O)C[C@H]2C2=NOC(C)(c3ccccc3)N2)C(C)C)on1 (single isomer, unassigned) [Example 128.2] | ≥ 150 |  | 
7 | CC(=O)N[C@H](C(=O)N1C[C@H](O)CC1C1=NC(=O)C(C)(c2ccc(Br)cc2)N1)C(C)(C)C (single isomer, unassigned) [Example 101.1] | > 500 | > 200 | 
8 | Cc1cc(C(C(=O)N2C[C@H](O)CC2C2=NC(=O)C(C)(C)N2)C(C)C)on1 (single isomer, unassigned) [Example 107.2] | 14.9 | 24.1 | 
9 | Cc1ncsc1-c1ccc([C@]2(C)NC(C3C[C@@H](O)CN3C(=O)[C@H]3CCCN3S(C)(=O)=O)=NC2=O)cc1 (single isomer, unassigned) [Example 120.1] | ≥ 150 |  | 
10 | Cc1cc([C@H](C(=O)N2C[C@H](O)C[C@H]2C(=O)NCc2ccc(-c3scnc3C)cc2OCCNC(=O)c2ccc3c(c2)C(=O)OC32c3ccc(N(C)C)cc3Oc3cc(N(C)C)ccc32)C(C)C)on1 [VHL fluorescence polarization probe, (2S,4R)—N-(2-(2-(3′,6′-bis(dimethylamino)-3-oxo-3H-spiro[isobenzofuran-1,9′-xanthene]-5-carboxamido)ethoxy)-4-(4-methylthiazol-5-yl)benzyl)-4-hydroxy-1-((R)-3-methyl-2-(3-methylisoxazol-5-yl)butanoyl)pyrrolidine-2-carboxamide, reference compound] |  |  | 18.2
11 | Cc1cc([C@@H](C(=O)N2C[C@H](O)C[C@H]2C2=NOC(C)(C)N2)C(C)C)on1 [Example 126.2, (S)-1-((2S,4R)-2-(5,5-dimethyl-4,5-dihydro-1,2,4-oxadiazol-3-yl)-4-hydroxypyrrolidin-1-yl)-3-methyl-2-(3-methylisoxazol-5-yl)butan-1-one] | ≥ 150 |  | 
12 | Cc1cc(C(C(=O)N2C[C@H](O)CC2C2=NC(=O)C(C)(c3ccc(Br)cc3)N2)C(C)C)on1 (single isomer, unassigned) [Example 103.2] | > 150 | > 400 | 
13 | Cc1cc(C(C(=O)N2C[C@H](O)CC2C2=NC(=O)C(C)(C)N2)C(C)C)on1 (single isomer, unassigned) [Example 107.4] | > 150 | > 50 | 
14 | Cc1ncsc1-c1ccc([C@]2(C)NC(C3C[C@@H](O)CN3C(=O)C(c3cc(O)no3)C(C)C)=NC2=O)cc1 (single isomer, unassigned) [Example 116.2] | 150 |  | 
15 | Cc1ncsc1-c1ccc([C@]2(C)NC(C3C[C@@H](O)CN3C(=O)[C@H]3CCCN3S(C)(=O)=O)=NC2=O)cc1 (single isomer, unassigned) [Example 120.2] | ≥ 150 |  | 
16 | CC(=O)N1CCC[C@H]1C(=O)N1C[C@H](O)CC1C1=NC(=O)[C@](C)(c2ccc(-c3scnc3C)cc2)N1 (single isomer, unassigned) [Example 121.2] | ≥ 150 |  | 
17 | Cc1cc(C(C(=O)N2C[C@H](O)CC2C2=NC(=O)C(C)(C)N2)C(C)C)on1 (single isomer, unassigned) [Example 107.1] | > 150 |  | 
